What was measured:
[1] = system: Plasmodium falciparum Dd2 asexual blood stage parasites; experiment: microbe, parasite or virus in culture; set-up: species or system Plasmodium falciparum Dd2 in human erythrocytes; single determination (one 11-point concentration-response curve); conditions: Plasmodium falciparum, DD2, Erythrocyte, 72 h; read-out: AC50
in vitro = conditions: human
[2] = HepG2-A16-CD81EGFP cells, uninfected

CCOC(=O)c1c(C)n(-c2ccc(F)cc2)c2ccc(O)cc12 [MLS001195957-01]
AC50 [1]: 6680 nM | viability at 48 h, 1 µM (in vitro; [2]): 109% | viability at 48 h, 3 µM (in vitro; [2]): 93%

COc1ccc(CCn2c(=N)c(C(=O)NC3CCCC3)cc3c(=O)n4cccc(C)c4nc32)cc1 [MLS001147827-01]
AC50 [1]: 750 nM | viability at 66 h (in vitro; [2]): 94.5%

CCOC(=O)C1=C(c2ccccc2)N=c2sc(=Cc3cc(OC)c(OC)c(OC)c3)c(=O)n2C1c1cccs1 (centres unmarked) [MLS000572607-01]
AC50 [1]: 5960 nM | viability at 48 h, 1 µM (in vitro; [2]): 82% | viability at 48 h, 3 µM (in vitro; [2]): 81%

Oc1ccc(C2NCc3ccccc3-n3cccc32)cc1Cl (centres unmarked) [MLS000047999-01]
AC50 [1]: 1500 nM | viability at 48 h, 1 µM (in vitro; [2]): 99% | viability at 48 h, 3 µM (in vitro; [2]): 90%

Oc1ccc(Cl)cc1-c1cc(C(F)(F)C(F)F)nc(-c2ccccc2)n1 [MLS000530553-01]
AC50 [1]: 841 nM | viability at 48 h, 1 µM (in vitro; [2]): 93% | viability at 48 h, 3 µM (in vitro; [2]): 87%

Cc1cccn2c(=O)c3cc(C(=O)NC4CCCC4)c(=N)n(CCc4ccccc4)c3nc12 [MLS001221260-01]
AC50 [1]: 1880 nM | viability at 48 h, 1 µM (in vitro; [2]): 95% | viability at 48 h, 3 µM (in vitro; [2]): 92%

CCCCCSc1cc(O)c(C(CNC)C(C)C)cc1OC (centres unmarked) [MLS000704380-01]
AC50 [1]: 168 nM | viability at 48 h, 1 µM (in vitro): 106% | viability at 48 h, 3 µM (in vitro): 101%

Cc1cc(Nc2cccc(F)c2)nc(NCc2ccccc2)n1 [MLS000589387-01]
AC50 [1]: 8410 nM | viability at 48 h, 1 µM (in vitro; [2]): 98% | viability at 48 h, 3 µM (in vitro; [2]): 87%

COc1cccc(NC(=O)c2ccc(NCCCN3CCC(C)CC3)c([N+](=O)[O-])c2)c1 [MLS000689409-01]
AC50 [1]: 7500 nM | viability at 66 h (in vitro; [2]): 108%

COc1ccc(CN2CCCC(N3CCc4ccccc4C3)C2)c(O)c1 (centres unmarked) [MLS001001490-01]
AC50 [1]: 2990 nM | viability at 48 h, 1 µM (in vitro; [2]): 84% | viability at 48 h, 3 µM (in vitro; [2]): 89%

CCCCN(CC)CCNC(=O)c1cc2c(-c3ccc(Cl)cc3)nn(C)c2s1 [NCGC00108995-01]
AC50 [1]: 668 nM | viability at 48 h, 1 µM (in vitro; [2]): 102% | viability at 48 h, 3 µM (in vitro; [2]): 97%

COc1ccc(CNCc2cc3c(C(C)(C)C)nn(-c4ccccc4)c3[nH]c2=O)cc1 [MLS000067276-01]
AC50 [1]: 841 nM | viability at 48 h, 1 µM (in vitro; [2]): 103% | viability at 48 h, 3 µM (in vitro; [2]): 109%

CCCn1cc(SCC(=O)NCc2ccco2)c2ccccc21 [MLS000095681-01]
AC50 [1]: 8410 nM | viability at 48 h, 1 µM (in vitro; [2]): 90% | viability at 48 h, 3 µM (in vitro; [2]): 87%

O=c1c2ccccc2nc(/C=C/c2cc(Br)ccc2O)n1CCCO [MLS001197097-01]
AC50 [1]: 9440 nM | viability at 66 h (in vitro; [2]): 103%

O=C(c1ccc([N+](=O)[O-])o1)N1CCN(c2nc3c(F)cc(F)cc3s2)CC1 [MLS001234228-01]
AC50 [1]: 5960 nM | viability at 48 h, 1 µM (in vitro; [2]): 103% | viability at 48 h, 3 µM (in vitro; [2]): 108%

Cc1nn(-c2nnc(NCc3ccccc3)nn2)c(C)c1Br [MLS000704225-01]
AC50 [1]: 841 nM | viability at 48 h, 1 µM (in vitro; [2]): 105% | viability at 48 h, 3 µM (in vitro; [2]): 92%

COc1ccc(-c2oc3ccccc3c2C#Cc2cncn2C)cc1 [MLS002402884-01]
AC50 [1]: 1060 nM | viability at 48 h, 1 µM (in vitro; [2]): 112% | viability at 48 h, 3 µM (in vitro; [2]): 95%

Cc1ccc(S(=O)(=O)NC(=O)Nc2ccc(N(C)C)cc2)cc1 [MLS001098045-01]
AC50 [1]: 1330 nM | viability at 48 h, 1 µM (in vitro; [2]): 100% | viability at 48 h, 3 µM (in vitro; [2]): 99%

CCCN(CCC)CCCNc1ccc(C(=O)Nc2cccc(OC)c2)cc1[N+](=O)[O-] [MLS000689411-01]
AC50 [1]: 5960 nM | viability at 48 h, 1 µM (in vitro; [2]): 106% | viability at 48 h, 3 µM (in vitro; [2]): 104%

Cc1c(O)c(CN2CCCCC2)cc2c1oc(=O)c1ccccc12 [MLS000551544-01]
AC50 [1]: 750 nM | viability at 66 h (in vitro; [2]): 95.3%

CCOC(=O)c1nnn(-c2nonc2-n2cccc2)c1CN1CCCCC1 [MLS000090434-01]
AC50 [1]: 7500 nM | viability at 48 h, 1 µM (in vitro; [2]): 102% | viability at 48 h, 3 µM (in vitro; [2]): 100%

CCCCN(C)[S+](=O)([O-])c1ccc(C(=O)Nc2ccc(-c3nc4ccc(C)cc4s3)cc2)cc1 [NCGC00134689-01]
viability at 66 h (in vitro; [2]): 103%

Cc1ccc(-n2nc3c(Cl)nnc(C)c3c2C)cc1 [MLS000698458-01]
viability at 48 h, 1 µM (in vitro; [2]): 105% | viability at 48 h, 3 µM (in vitro; [2]): 104%

COc1ccccc1-c1nnc2sc(COc3ccc(F)cc3)nn12 [MLS000042616-01]
viability at 48 h (in vitro; [2]): 102% | viability at 48 h, 1 µM (in vitro; [2]): 102%

Cc1cccc(NC(=O)c2cc(S(=O)(=O)N(C)c3ccc(F)cc3)ccc2Cl)n1 [MLS001160863-01]
viability at 48 h, 1 µM (in vitro; [2]): 97% | viability at 48 h, 3 µM (in vitro; [2]): 92%

COC(CSc1nc(N)c2c3c(sc2n1)CN(C)CC3)OC [MLS001215130-01]
viability at 66 h (in vitro; [2]): 97.5%

CCCC(=O)Nc1sc2c(c1C(=O)Nc1ccccn1)CCCC2 [MLS000765104-01]
viability at 66 h (in vitro; [2]): 101%

O=S(=O)(c1ccc(F)cc1)N1CCN(/C(S)=N/Cc2ccco2)CC1 [MLS000409296-01]
viability at 66 h (in vitro; [2]): 103%

Cc1ccc2[nH]c(C(=O)Nc3ccc(F)cc3)cc2c1 [MLS001183414-01]
viability at 66 h (in vitro; [2]): 99.7%

Cc1ccc(CN(C)C(=O)c2cc(COc3ccc(F)cc3Cl)on2)o1 [MLS000734222-01]
viability at 66 h (in vitro; [2]): 101%

Cc1n[nH]c(=S)n(/N=C/c2cccs2)c1=O [MLS000780118-01]
viability at 66 h (in vitro; [2]): 98.7%

Cc1cccc(CSc2nn3c(=O)c(C)nnc3s2)c1 [MLS000724933-01]
viability at 48 h, 1 µM (in vitro; [2]): 115% | viability at 48 h, 3 µM (in vitro; [2]): 100%

O=C(C[n+]1cc(-c2ccccc2)n2c1CCC2)c1cccs1 [MLS001003812-01]
viability at 48 h, 1 µM (in vitro; [2]): 94% | viability at 48 h, 3 µM (in vitro; [2]): 86%

COc1ccc(CCn2c(=N)c(C(=O)NC3CCCCC3)cc3c(=O)n4ccccc4nc32)cc1 [MLS001146200-01]
viability at 48 h, 1 µM (in vitro; [2]): 102% | viability at 48 h, 3 µM (in vitro; [2]): 98%

CCSc1nnc(SCC(=O)c2c(N)n(C)c(=O)n(C)c2=O)s1 [MLS002169255-01]
viability at 48 h, 1 µM (in vitro; [2]): 93% | viability at 48 h, 3 µM (in vitro; [2]): 88%

c1cc(Nc2ncnc3sc4c(c23)CCC4)ccn1 [MLS000681348-01]
viability at 48 h (in vitro; [2]): 103% | viability at 48 h, 1 µM (in vitro; [2]): 103%

Cc1nn(-c2ccc([N+](=O)[O-])cc2)c2c1C(c1cccc(Br)c1)N1C(=N2)C(=O)Nc2ccccc21 (centres unmarked) [MLS000331784-01]
viability at 48 h, 1 µM (in vitro; [2]): 105% | viability at 48 h, 3 µM (in vitro; [2]): 102%

CCOc1ccc2nc(C)cc(Nc3cccc([N+](=O)[O-])c3)c2c1 [MLS000663974-01]
viability at 66 h (in vitro; [2]): 102%

Cc1ccc(-c2nc(CN3CCCCC3)cc(CN3CCCCC3)c2O)cc1 [MLS000713293-01]
viability at 48 h (in vitro; [2]): 101% | viability at 48 h, 1 µM (in vitro; [2]): 101%

Cc1ccc2c(c1)-c1c(ssc1=S)C(C)(C)N2C(=O)c1ccco1 [MLS000525939-01]
viability at 48 h, 1 µM (in vitro; [2]): 100% | viability at 48 h, 3 µM (in vitro; [2]): 100%

CCc1ccc2c(c1)C1(NN=C(c3ccc(C)cc3)S1)C(=O)N2 (centres unmarked) [MLS000528737-01]
viability at 48 h, 1 µM (in vitro; [2]): 115% | viability at 48 h, 3 µM (in vitro; [2]): 80%

CCc1cc(C(=O)c2ccccc2)c(N)s1 [MLS001211275-01]
viability at 66 h (in vitro; [2]): 107%

CN(C(=O)c1ccc(NC(=O)Cc2cccc(NC(=O)C3CCCN(C(=O)CCc4ccccc4)C3)c2)cc1)C1CCCC1 (centres unmarked) [MLS002402746-01]
viability at 48 h (in vitro; [2]): 104% | viability at 48 h, 1 µM (in vitro; [2]): 104%

CCOc1cc(CN2CCCC(N3CCN(c4ccc(F)cc4)CC3)C2)ccc1OC (centres unmarked) [MLS001162894-01]
viability at 48 h, 1 µM (in vitro; [2]): 114% | viability at 48 h, 3 µM (in vitro; [2]): 103%

COc1ccc(C(=O)C[n+]2ccc(N(C)C)cc2)cc1 [MLS001044390-01]
viability at 66 h (in vitro; [2]): 100%

CCOC(=O)Cn1c2c(c(=N)c3c1CCC3)CCC2 [MLS000080129-01]
viability at 66 h (in vitro; [2]): 99.5%

Source: PMC7822874, “Chemoprotective antimalarials identified through quantitative high-throughput screening of Plasmodium blood and liver stage parasites” (Scientific Reports, 2021)
